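48-hour exposure; five concentrations; linearly interpolated endpoints. GI50 = concentration required for 50% inhibition of growth.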 Activity calls are given as the source filed them. Rule as the data show it: active = GI50 up to about 1.1 µM and inactive = higher.
Experiments:
Experiment in all cases: DTP human tumour cell line panel, 48 h
EKVX = system: EKVX
CAKI-1 = system: CAKI-1
SF-268 = system: SF-268
NCI-H522 = system: NCI-H522
LOX IMVI = system: LOX IMVI
A498 = system: A498
SF-539 = system: SF-539
A549 = system: A549
HCC 2998 = system: HCC 2998
SW-620 = system: SW-620
KM-20L2 = system: KM-20L2
DMS-114 = system: DMS-114
SK-MEL-28 = system: SK-MEL-28
NCI-H460 = system: NCI-H460
M19-MEL = system: M19-MEL
SK-OV-3 = system: SK-OV-3
M14 = system: M14
OVCAR-5 = system: OVCAR-5
LXFL 529 = system: LXFL 529
SN12C = system: SN12C
KM12 = system: KM12
NCI-H23 = system: NCI-H23
DMS-273 = system: DMS-273
TK-10 = system: TK-10
RXF 631 = system: RXF 631
DLD-1 = system: DLD-1
OVCAR-4 = system: OVCAR-4
UACC-62 = system: UACC-62
786-0 = system: 786-0
HL-60 = system: HL-60
SNB-19 = system: SNB-19
COLO 205 = system: COLO 205
HCT-15 = system: HCT-15
K562 = system: K562
UACC-257 = system: UACC-257
SNB-78 = system: SNB-78
HCT-116 = system: HCT-116
SK-MEL-2 = system: SK-MEL-2
U-251 = system: U-251
CCRF-CEM = system: CCRF-CEM
HT-29 = system: HT-29
UO-31 = system: UO-31
OVCAR-8 = system: OVCAR-8
RPMI-8226 = system: RPMI-8226
SF-295 = system: SF-295
MOLT-4 = system: MOLT-4
XF498 = system: XF498
SNB-75 = system: SNB-75
HOP-62 = system: HOP-62
SK-MEL-5 = system: SK-MEL-5
IGROV-1 = system: IGROV-1
Malme-3M = system: Malme-3M
OVCAR-3 = system: OVCAR-3
RXF 393 = system: RXF 393
ACHN = system: ACHN
HOP-92 = system: HOP-92
NCI-H226 = system: NCI-H226
SR = system: SR
HOP-18 = system: HOP-18

For `Cc1ccc(NC(=O)CC(=O)n2nc(C)c(/N=N/c3ccccc3C(=O)O)c2C)cc1`, the GI50 (EKVX) was > 100 µM (inactive), the GI50 (CAKI-1) was > 100 µM (inactive) and the GI50 (SF-268) was > 100 µM (inactive). The GI50 (NCI-H522) was > 100 µM (inactive), the GI50 (LOX IMVI) was > 100 µM (inactive) and the GI50 (A498) was > 100 µM (inactive). The GI50 (SF-539) was > 100 µM (inactive), the GI50 (A549) was > 100 µM (inactive) and the GI50 (HCC 2998) was > 100 µM (inactive). For the same compound, the GI50 (SW-620) was > 100 µM (inactive), the GI50 (KM-20L2) was > 100 µM (inactive) and the GI50 (DMS-114) was > 100 µM (inactive). For the same compound, the GI50 (SK-MEL-28) was > 100 µM (inactive), the GI50 (NCI-H460) was > 100 µM (inactive) and the GI50 (M19-MEL) was > 100 µM (inactive). The GI50 (SK-OV-3) was > 100 µM (inactive), the GI50 (M14) was > 100 µM (inactive) and the GI50 (OVCAR-5) was > 100 µM (inactive). For the same compound, the GI50 (LXFL 529) was > 100 µM (inactive), the GI50 (SN12C) was > 100 µM (inactive) and the GI50 (KM12) was > 100 µM (inactive). For the same compound, the GI50 (NCI-H23) was > 100 µM (inactive), the GI50 (DMS-273) was > 100 µM (inactive) and the GI50 (TK-10) was > 100 µM (inactive). For the same compound, the GI50 (RXF 631) was > 100 µM (inactive), the GI50 (DLD-1) was > 100 µM (inactive) and the GI50 (OVCAR-4) was > 100 µM (inactive). The GI50 (UACC-62) was > 100 µM (inactive), the GI50 (786-0) was > 100 µM (inactive) and the GI50 (HL-60) was > 100 µM (inactive). For the same compound, the GI50 (SNB-19) was > 100 µM (inactive), the GI50 (COLO 205) was > 100 µM (inactive) and the GI50 (HCT-15) was > 100 µM. The GI50 (K562) was > 100 µM (inactive), the GI50 (UACC-257) was > 100 µM (inactive) and the GI50 (SNB-78) was > 100 µM (inactive). The GI50 (HCT-116) was > 100 µM (inactive), the GI50 (SK-MEL-2) was > 100 µM (inactive) and the GI50 (U-251) was > 100 µM (inactive). The GI50 (CCRF-CEM) was > 100 µM (inactive), the GI50 (HT-29) was > 100 µM (inactive) and the GI50 (UO-31) was > 100 µM (inactive). The GI50 (OVCAR-8) was > 100 µM (inactive), the GI50 (RPMI-8226) was > 100 µM (inactive) and the GI50 (SF-295) was > 100 µM (inactive). For the same compound, the GI50 (MOLT-4) was > 100 µM (inactive), the GI50 (XF498) was > 100 µM (inactive) and the GI50 (SNB-75) was 89.1 µM (inactive). The GI50 (HOP-62) was > 100 µM (inactive), the GI50 (SK-MEL-5) was > 100 µM (inactive) and the GI50 (IGROV-1) was > 100 µM (inactive). The GI50 (Malme-3M) was > 100 µM (inactive) and the GI50 (OVCAR-3) was > 100 µM (inactive).
With `CCCCCCCCC(C)CCCCCCCCC(=O)OCC(COP(=O)([O-])OCC[N+](C)(C)C)OC(=O)CCCCCCCCC(C)CCCCCCCC` (stereo not given) the GI50 (EKVX) was > 100 µM (inactive), the GI50 (CAKI-1) was > 100 µM (inactive) and the GI50 (SF-268) was > 100 µM (inactive). The GI50 (NCI-H522) was > 100 µM (inactive), the GI50 (LOX IMVI) was > 100 µM (inactive) and the GI50 (A498) was > 100 µM (inactive). The GI50 (A549) was > 100 µM (inactive), the GI50 (HCC 2998) was > 100 µM (inactive) and the GI50 (RXF 393) was > 100 µM (inactive). For the same compound, the GI50 (ACHN) was > 100 µM (inactive), the GI50 (SW-620) was > 100 µM (inactive) and the GI50 (KM-20L2) was > 100 µM (inactive). The GI50 (DMS-114) was > 100 µM (inactive), the GI50 (SK-MEL-28) was > 100 µM (inactive) and the GI50 (NCI-H460) was > 100 µM (inactive). For the same compound, the GI50 (M19-MEL) was > 100 µM (inactive), the GI50 (SK-OV-3) was > 100 µM (inactive) and the GI50 (M14) was > 100 µM (inactive). For the same compound, the GI50 (OVCAR-5) was > 100 µM (inactive), the GI50 (LXFL 529) was > 100 µM (inactive) and the GI50 (SN12C) was > 100 µM (inactive). For the same compound, the GI50 (KM12) was > 100 µM (inactive), the GI50 (NCI-H23) was > 100 µM (inactive) and the GI50 (DMS-273) was > 100 µM (inactive). For the same compound, the GI50 (TK-10) was > 100 µM (inactive), the GI50 (RXF 631) was > 100 µM (inactive) and the GI50 (HOP-92) was > 100 µM (inactive). For the same compound, the GI50 (DLD-1) was > 100 µM (inactive), the GI50 (OVCAR-4) was > 100 µM (inactive) and the GI50 (UACC-62) was > 100 µM (inactive). The GI50 (786-0) was > 100 µM (inactive), the GI50 (HL-60) was > 100 µM (inactive) and the GI50 (SNB-19) was > 100 µM (inactive). The GI50 (COLO 205) was > 100 µM (inactive), the GI50 (HCT-15) was > 100 µM and the GI50 (NCI-H226) was > 100 µM (inactive). For the same compound, the GI50 (K562) was > 100 µM (inactive), the GI50 (UACC-257) was > 100 µM (inactive) and the GI50 (SNB-78) was > 100 µM (inactive). For the same compound, the GI50 (HCT-116) was > 100 µM (inactive), the GI50 (SK-MEL-2) was > 100 µM (inactive) and the GI50 (U-251) was > 100 µM (inactive). The GI50 (CCRF-CEM) was > 100 µM (inactive), the GI50 (HT-29) was > 100 µM (inactive) and the GI50 (UO-31) was > 100 µM (inactive). For the same compound, the GI50 (OVCAR-8) was > 100 µM (inactive), the GI50 (SR) was > 100 µM (inactive) and the GI50 (HOP-18) was > 100 µM (inactive). The GI50 (RPMI-8226) was > 100 µM (inactive), the GI50 (SF-295) was > 100 µM (inactive) and the GI50 (MOLT-4) was > 100 µM (inactive). For the same compound, the GI50 (SNB-75) was > 100 µM (inactive), the GI50 (HOP-62) was > 100 µM (inactive) and the GI50 (SK-MEL-5) was > 100 µM (inactive). For the same compound, the GI50 (IGROV-1) was > 100 µM (inactive), the GI50 (Malme-3M) was > 100 µM (inactive) and the GI50 (OVCAR-3) was > 100 µM (inactive).

Reference: ChEMBL document CHEMBL1201862, “PubChem BioAssay data set” (2004)
